In publication PMC4021529 (British Journal of Cancer, 2014):

Tests used:
Adverse events = assay type: in vivo, human; settings: for Abdominal pain grade 3, number of patients / Anaemia grade 3, number of patients / Fatigue grade 3, number of patients / Neutropenia grade 3, number of patients / Thrombocytopenia grade 3, number of patients / Upper GI haemorrhage grade 3, number of patients / Anaemia grade 4, number of patients / Hypokalaemia grade 3, number of patients / Ileus grade 3, number of patients / Leukopenia grade 4, number of patients / Neutropenia grade 4, number of patients / Thrombocytopenia grade 4, number of patients / Febrile neutropenia grade 3, number of patients / Febrile neutropenia grade 4, number of patients / Infection grade 3, number of patients / Leukopenia grade 3, number of patients / Pain grade 3, number of patients / Dyspnoea grade 3, number of patients / Dizziness grade 3, number of patients / Rash grade 3, number of patients / Vomiting grade 3, number of patients / Abdominal distension grade 3, number of patients / Decreased appetite grade 3, number of patients: irrespective of relatedness; for drug-related anaemia, incidence / drug-related leukopenia, incidence / drug-related neutropenia, incidence / drug-related thrombocytopenia, incidence: all doses
[1] = QTcF interval, triplicate 12-lead ECG; assay type: in vivo, human; settings: for maximal mean change (±s.d.) from baseline in QTcF: 2 h post-administration, first two courses

Structure (SMILES): CC[C@@H]1C(=O)N(C)c2cnc(Nc3ccc(C(=O)N[C@H]4CC[C@H](N5CCN(CC6CC6)CC5)CC4)cc3OC)nc2N1C(C)C [volasertib]
- deaths during the study (Adverse events; all due to underlying cancer, none considered related to volasertib): three deaths
- Abdominal pain grade 3, number of patients (Adverse events; schedule A, 100 mg (n=3)): 1 n
- Anaemia grade 3, number of patients (Adverse events; schedule A, 100 mg (n=3)): 1 n
- Fatigue grade 3, number of patients (Adverse events; schedule A, 100 mg (n=3)): 1 n
- Neutropenia grade 3, number of patients (Adverse events; schedule A, 100 mg (n=3)): 1 n
- Thrombocytopenia grade 3, number of patients (Adverse events; schedule A, 100 mg (n=3)): 1 n
- Upper GI haemorrhage grade 3, number of patients (Adverse events; schedule A, 100 mg (n=3)): 1 n
- Anaemia grade 3, number of patients (Adverse events; schedule A, 250 mg (n=6)): 3 n
- Anaemia grade 4, number of patients (Adverse events; schedule A, 250 mg (n=6)): 1 n
- Hypokalaemia grade 3, number of patients (Adverse events; schedule A, 250 mg (n=6)): 1 n
- Ileus grade 3, number of patients (Adverse events; schedule A, 250 mg (n=6)): 1 n
- Leukopenia grade 4, number of patients (Adverse events; schedule A, 250 mg (n=6)): 1 n
- Neutropenia grade 4, number of patients (Adverse events; schedule A, 250 mg (n=6)): 2 n
- Thrombocytopenia grade 3, number of patients (Adverse events; schedule A, 250 mg (n=6)): 1 n
- Thrombocytopenia grade 4, number of patients (Adverse events; schedule A, 250 mg (n=6)): 1 n
- Abdominal pain grade 3, number of patients (Adverse events; schedule A, 300 mg (n=17)): 2 n
- Anaemia grade 3, number of patients (Adverse events; schedule A, 300 mg (n=17)): 2 n
- Anaemia grade 4, number of patients (Adverse events; schedule A, 300 mg (n=17)): 2 n
- Fatigue grade 3, number of patients (Adverse events; schedule A, 300 mg (n=17)): 1 n
- Febrile neutropenia grade 3, number of patients (Adverse events; schedule A, 300 mg (n=17)): 1 n
- Febrile neutropenia grade 4, number of patients (Adverse events; schedule A, 300 mg (n=17)): 1 n
- Infection grade 3, number of patients (Adverse events; schedule A, 300 mg (n=17)): 1 n
- Leukopenia grade 3, number of patients (Adverse events; schedule A, 300 mg (n=17)): 7 n
- Neutropenia grade 3, number of patients (Adverse events; schedule A, 300 mg (n=17)): 5 n
- Neutropenia grade 4, number of patients (Adverse events; schedule A, 300 mg (n=17)): 5 n
- Pain grade 3, number of patients (Adverse events; schedule A, 300 mg (n=17)): 1 n
- Thrombocytopenia grade 3, number of patients (Adverse events; schedule A, 300 mg (n=17)): 7 n
- Thrombocytopenia grade 4, number of patients (Adverse events; schedule A, 300 mg (n=17)): 2 n
- Anaemia grade 3, number of patients (Adverse events; schedule A, 350 mg (n=3)): 2 n
- Anaemia grade 4, number of patients (Adverse events; schedule A, 350 mg (n=3)): 1 n
- Febrile neutropenia grade 3, number of patients (Adverse events; schedule A, 350 mg (n=3)): 1 n
- Leukopenia grade 3, number of patients (Adverse events; schedule A, 350 mg (n=3)): 2 n
- Neutropenia grade 4, number of patients (Adverse events; schedule A, 350 mg (n=3)): 3 n
- Thrombocytopenia grade 3, number of patients (Adverse events; schedule A, 350 mg (n=3)): 1 n
- Thrombocytopenia grade 4, number of patients (Adverse events; schedule A, 350 mg (n=3)): 2 n
- drug-related anaemia, incidence (Adverse events; schedule A): 40.6%
- drug-related leukopenia, incidence (Adverse events; schedule A): 56.3%
- drug-related neutropenia, incidence (Adverse events; schedule A): 56.3%
- drug-related thrombocytopenia, incidence (Adverse events; schedule A): 62.5%
- Abdominal pain grade 3, number of patients (Adverse events; schedule A, total (n=32)): 3 (9.4) n (%)
- Anaemia grade 3, number of patients (Adverse events; schedule A, total (n=32)): 8 (25.0) n (%)
- Anaemia grade 4, number of patients (Adverse events; schedule A, total (n=32)): 4 (12.5) n (%)
- Fatigue grade 3, number of patients (Adverse events; schedule A, total (n=32)): 2 (6.3) n (%)
- Febrile neutropenia grade 3, number of patients (Adverse events; schedule A, total (n=32)): 2 (6.3) n (%)
- Febrile neutropenia grade 4, number of patients (Adverse events; schedule A, total (n=32)): 1 (3.1) n (%)
- Hypokalaemia grade 3, number of patients (Adverse events; schedule A, total (n=32)): 1 (3.1) n (%)
- Ileus grade 3, number of patients (Adverse events; schedule A, total (n=32)): 1 (3.1) n (%)
- Infection grade 3, number of patients (Adverse events; schedule A, total (n=32)): 1 (3.1) n (%)
- Leukopenia grade 3, number of patients (Adverse events; schedule A, total (n=32)): 9 (28.1) n (%)
- Leukopenia grade 4, number of patients (Adverse events; schedule A, total (n=32)): 1 (3.1) n (%)
- Neutropenia grade 3, number of patients (Adverse events; schedule A, total (n=32)): 6 (18.8) n (%)
- Neutropenia grade 4, number of patients (Adverse events; schedule A, total (n=32)): 10 (31.3) n (%)
- Pain grade 3, number of patients (Adverse events; schedule A, total (n=32)): 1 (3.1) n (%)
- Thrombocytopenia grade 3, number of patients (Adverse events; schedule A, total (n=32)): 10 (31.3) n (%)
- Thrombocytopenia grade 4, number of patients (Adverse events; schedule A, total (n=32)): 5 (15.6) n (%)
- Upper GI haemorrhage grade 3, number of patients (Adverse events; schedule A, total (n=32)): 1 (3.1) n (%)
- Anaemia grade 3, number of patients (Adverse events; schedule B, 50 mg (n=4)): 1 n
- Infection grade 3, number of patients (Adverse events; schedule B, 50 mg (n=4)): 1 n
- Dyspnoea grade 3, number of patients (Adverse events; schedule B, 100 mg (n=4)): 1 n
- Hypokalaemia grade 3, number of patients (Adverse events; schedule B, 100 mg (n=4)): 1 n
- Abdominal pain grade 3, number of patients (Adverse events; schedule B, 150 mg (n=16)): 2 n
- Anaemia grade 3, number of patients (Adverse events; schedule B, 150 mg (n=16)): 1 n
- Anaemia grade 4, number of patients (Adverse events; schedule B, 150 mg (n=16)): 2 n
- Dizziness grade 3, number of patients (Adverse events; schedule B, 150 mg (n=16)): 1 n
- Fatigue grade 3, number of patients (Adverse events; schedule B, 150 mg (n=16)): 1 n
- Leukopenia grade 3, number of patients (Adverse events; schedule B, 150 mg (n=16)): 1 n
- Neutropenia grade 3, number of patients (Adverse events; schedule B, 150 mg (n=16)): 2 n
- Neutropenia grade 4, number of patients (Adverse events; schedule B, 150 mg (n=16)): 1 n
- Pain grade 3, number of patients (Adverse events; schedule B, 150 mg (n=16)): 2 n
- Rash grade 3, number of patients (Adverse events; schedule B, 150 mg (n=16)): 1 n
- Upper GI haemorrhage grade 3, number of patients (Adverse events; schedule B, 150 mg (n=16)): 1 n
- Vomiting grade 3, number of patients (Adverse events; schedule B, 150 mg (n=16)): 1 n
- Abdominal distension grade 3, number of patients (Adverse events; schedule B, 200 mg (n=3)): 1 n
- Anaemia grade 3, number of patients (Adverse events; schedule B, 200 mg (n=3)): 2 n
- Decreased appetite grade 3, number of patients (Adverse events; schedule B, 200 mg (n=3)): 1 n
- Fatigue grade 3, number of patients (Adverse events; schedule B, 200 mg (n=3)): 1 n
- Febrile neutropenia grade 3, number of patients (Adverse events; schedule B, 200 mg (n=3)): 1 n
- Hypokalaemia grade 3, number of patients (Adverse events; schedule B, 200 mg (n=3)): 1 n
- Ileus grade 3, number of patients (Adverse events; schedule B, 200 mg (n=3)): 2 n
- Infection grade 3, number of patients (Adverse events; schedule B, 200 mg (n=3)): 1 n
- Leukopenia grade 4, number of patients (Adverse events; schedule B, 200 mg (n=3)): 1 n
- Neutropenia grade 4, number of patients (Adverse events; schedule B, 200 mg (n=3)): 2 n
- Thrombocytopenia grade 3, number of patients (Adverse events; schedule B, 200 mg (n=3)): 2 n
- Upper GI haemorrhage grade 3, number of patients (Adverse events; schedule B, 200 mg (n=3)): 1 n
- drug-related anaemia, incidence (Adverse events; schedule B): 18.5%
- drug-related leukopenia, incidence (Adverse events; schedule B): 33.3%
- drug-related neutropenia, incidence (Adverse events; schedule B): 33.3%
- drug-related thrombocytopenia, incidence (Adverse events; schedule B): 14.8%
- Abdominal distension grade 3, number of patients (Adverse events; schedule B, total (n=27)): 1 (3.7) n (%)
- Abdominal pain grade 3, number of patients (Adverse events; schedule B, total (n=27)): 2 (7.4) n (%)
- Anaemia grade 3, number of patients (Adverse events; schedule B, total (n=27)): 4 (14.8) n (%)
- Anaemia grade 4, number of patients (Adverse events; schedule B, total (n=27)): 2 (7.4) n (%)
- Decreased appetite grade 3, number of patients (Adverse events; schedule B, total (n=27)): 1 (3.7) n (%)
- Dizziness grade 3, number of patients (Adverse events; schedule B, total (n=27)): 1 (3.7) n (%)
- Dyspnoea grade 3, number of patients (Adverse events; schedule B, total (n=27)): 1 (3.7) n (%)
- Fatigue grade 3, number of patients (Adverse events; schedule B, total (n=27)): 2 (7.4) n (%)
- Febrile neutropenia grade 3, number of patients (Adverse events; schedule B, total (n=27)): 1 (3.7) n (%)
- Hypokalaemia grade 3, number of patients (Adverse events; schedule B, total (n=27)): 2 (7.4) n (%)
- Ileus grade 3, number of patients (Adverse events; schedule B, total (n=27)): 2 (7.4) n (%)
- Infection grade 3, number of patients (Adverse events; schedule B, total (n=27)): 2 (7.4) n (%)
- Leukopenia grade 3, number of patients (Adverse events; schedule B, total (n=27)): 1 (3.7) n (%)
- Leukopenia grade 4, number of patients (Adverse events; schedule B, total (n=27)): 1 (3.7) n (%)
- Neutropenia grade 3, number of patients (Adverse events; schedule B, total (n=27)): 2 (7.4) n (%)
- Neutropenia grade 4, number of patients (Adverse events; schedule B, total (n=27)): 3 (11.1) n (%)
- Pain grade 3, number of patients (Adverse events; schedule B, total (n=27)): 2 (7.4) n (%)
- Rash grade 3, number of patients (Adverse events; schedule B, total (n=27)): 1 (3.7) n (%)
- Thrombocytopenia grade 3, number of patients (Adverse events; schedule B, total (n=27)): 2 (7.4) n (%)
- Upper GI haemorrhage grade 3, number of patients (Adverse events; schedule B, total (n=27)): 2 (7.4) n (%)
- Vomiting grade 3, number of patients (Adverse events; schedule B, total (n=27)): 1 (3.7) n (%)
- QTcF at 8-h post-dose assessment ([1]; first course): returned to baseline levels
- clinically relevant cardiac AEs related to a prolonged QT interval ([1]; in vivo): No related clinically relevant cardiac AEs
- maximal mean change (±s.d.) from baseline in QTcF ([1]; schedule A, 300 mg): 21.0 (±10.6) ms
- maximal mean change (±s.d.) from baseline in QTcF ([1]; schedule B, 150 mg): 14.9 (±11.7) ms
